Like-named read-outs stand apart in the source and are kept apart here.
Tests used:
[1] = molecular target: T1, MEK1 (Homo sapiens, UniProt Q02750); assay: MEK1-inhibiting activity, fluorescent polarization method (CRAF/MEK1/ERK2 cascade, IMAP); format: biochemical
T1 construct: purchased Thermo Fisher Scientific Inc. (MEK1, CRAF); Carna Biosciences, Inc. (ERK2)
Protocol: The MEK1-inhibiting activity of the compounds listed in Table 3 below were evaluated by the fluorescent polarization method as described below.

[2] = molecular target: T2, BRAF (Homo sapiens, UniProt P15056); assay: BRAF-inhibiting activity, time-resolved fluorescence-fluorescence resonance energy transfer assay; format: biochemical
T2 construct: purchased Eurofins Genomics KK; (BRAF); Thermo Fisher Scientific Inc. (MEK1)
T2 sequence (P15056 417-766 limits assumed): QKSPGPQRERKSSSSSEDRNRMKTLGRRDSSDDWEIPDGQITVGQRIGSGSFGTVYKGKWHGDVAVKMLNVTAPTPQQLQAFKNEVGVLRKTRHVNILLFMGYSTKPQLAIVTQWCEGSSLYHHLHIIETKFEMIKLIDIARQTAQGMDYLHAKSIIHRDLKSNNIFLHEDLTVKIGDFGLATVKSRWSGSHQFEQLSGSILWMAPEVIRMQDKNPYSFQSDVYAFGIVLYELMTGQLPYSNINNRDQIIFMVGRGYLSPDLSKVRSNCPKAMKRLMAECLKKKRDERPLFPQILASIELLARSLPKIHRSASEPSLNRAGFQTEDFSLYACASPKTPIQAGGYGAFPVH
Protocol: The BRAF-inhibiting activity of the compounds listed in Table 3 below was evaluated by the time-resolved fluorescence-fluorescence resonance energy transfer assay as described below.

[3] = system: A549; assay: Cell proliferation-inhibiting activity (ATP in viable cells, CellTiter-Glo), A549; format: cell-based, human; settings: A549, 96 h, read-out: A549 IC50
[4] = system: Calu-6; assay: Cell proliferation-inhibiting activity (ATP in viable cells, CellTiter-Glo), Calu-6; format: cell-based, human; settings: Calu-6, 96 h, read-out: Calu-6 IC50
[5] = system: NCI-H2122; assay: Cell proliferation-inhibiting activity (ATP in viable cells, CellTiter-Glo), NCI-H2122; format: cell-based, human; settings: NCI-H2122, 96 h, read-out: NCI-H2122 IC50
[6] = Human liver microsome stability; format: in vitro ADME; settings: human liver microsomes, pH 7.4
[7] = human lung cancer cells, 4 days

T1 sequence (Q02750 whole entry): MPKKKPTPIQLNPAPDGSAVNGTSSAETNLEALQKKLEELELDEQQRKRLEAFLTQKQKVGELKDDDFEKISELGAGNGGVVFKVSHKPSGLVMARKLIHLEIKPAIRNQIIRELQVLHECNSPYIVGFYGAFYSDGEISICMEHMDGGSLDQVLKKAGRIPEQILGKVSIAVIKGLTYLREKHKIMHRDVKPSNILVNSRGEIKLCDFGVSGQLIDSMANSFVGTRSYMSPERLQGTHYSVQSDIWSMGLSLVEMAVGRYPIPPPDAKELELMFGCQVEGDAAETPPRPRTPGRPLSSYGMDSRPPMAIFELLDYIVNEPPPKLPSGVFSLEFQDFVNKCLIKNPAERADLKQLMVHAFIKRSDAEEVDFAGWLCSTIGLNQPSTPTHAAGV

Row | Compound | IC50 ([1]; Table 3, read-out: MEK1 IC50) [nM] | IC50 ([2]; read-out: BRAF IC50; Table 3) [nM] | IC50 [3, 7] [nM] | IC50 [4, 7] [nM] | IC50 [5, 7] [nM] | microsomal CLint at 0.99 µM [6] [µL/min/mg] | IC50 ([2]; Table 3; read-out: BRAF IC50) [nM] | IC50 ([3]; Homo sapiens) [nM] | IC50 ([4]; Homo sapiens) [nM] | IC50 ([5]; Homo sapiens) [nM] | IC50 [1] [nM]
1 | CNS(=O)(=O)Nc1cccc(Cc2cc(C(N)=O)c(Nc3ccc(I)cc3F)c(F)c2F)c1F [Compound E-7, 3,4-difluoro-2-(2-fluoro-4-iodoanilino)-5-[[2-fluoro-3-(methylsulfamoylamino)phenyl]methyl]benzamide] | 334 | 6 | 1 | 8 | 0.4 | 5 |  |  |  |  | 
2 | Cn1c(Nc2ccc(C3CC3)cc2F)c(C(N)=O)cc(Cc2ccnc(NS(=O)(=O)NC3CC3)c2F)c1=O [Compound J-4, 2-(4-Cyclopropyl-2-fluoroanilino)-5-[[2-(cyclopropylsulfamoylamino)-3-fluoropyridin-4-yl]methyl]-1-methyl-6-oxopyridine-3-carboxamide] | 877 |  |  |  |  | 67 | 14 | > 2000 | > 2000 | 1060 | 
3 | CONC(=O)c1cc(Cc2ccnc(NS(=O)(=O)NC3(C)CCC3)c2F)c(F)c(F)c1Nc1ccc(I)cc1F [Compound A-15, 3,4-difluoro-2-(2-fluoro-4-iodoanilino)-5-[[3-fluoro-2-[(1-methylcyclobutyl)sulfamoylamino]pyridin-4-yl]methyl]-N-methoxybenzamide] | 8 | 4 | 2 | 5 | 1 | 57 |  |  |  |  | 
4 | CNS(=O)(=O)Nc1nccc(Cc2cc(C(N)=O)c(Nc3ccc(SC)cc3F)c(F)c2F)c1F [Compound A-18, 3,4-difluoro-5-[[3-fluoro-2-(methylsulfamoylamino)pyridin-4-yl]methyl]-2-(2-fluoro-4-methylsulfanylanilino)benzamide] | 8 |  |  |  |  | 53 | 4 | 5 | 7 | 2 | 
5 | NS(=O)(=O)Nc1nccc(Cc2cc(C(=O)NC3CC3)c(Nc3ccc(I)cc3F)c(F)c2F)c1F [Compound A-3, N-Cyclopropyl-3,4-difluoro-2-(2-fluoro-4-iodoanilino)-5-[[3-fluoro-2-(sulfamoylamino)pyridin-4-yl]methyl]benzamide] | 31 | 5 | 25 | 28 | 13 | 10 |  |  |  |  | 
6 | CNS(=O)(=O)Nc1cccc(Cc2cc(C(=O)NC3CC3)c(Nc3ccc(I)cc3F)c(F)c2F)c1F [Compound D-6, N-Cyclopropyl-3,4-difluoro-2-(2-fluoro-4-iodoanilino)-5-[[2-fluoro-3-(methylsulfamoylamino)phenyl]methyl]benzamide] | 55 | 8 | 8 | 24 | 2 | 34 |  |  |  |  | 
7 | CNS(=O)(=O)Nc1nccc(Oc2cc(C(N)=O)c(Nc3ccc(I)cc3F)c(F)c2F)c1F [Compound H-4, 3,4-difluoro-2-(2-fluoro-4-iodoanilino)-5-[3-fluoro-2-(methylsulfamoylamino)pyridin-4-yl]oxybenzamide] | 8 | 12 | 9 | 6 | 1 | 11 |  |  |  |  | 
8 | CCS(=O)(=O)Nc1cccc(Cc2cc(C(=O)NOC(C)(C)C)c(Nc3ccc(I)cc3F)c(F)c2F)c1F [Compound E-2, 5-[[3-(Ethylsulfonylamino)-2-fluorophenyl]methyl]-3,4-difluoro-2-(2-fluoro-4-iodoanilino)-N-[(2-methylpropan-2-yl)oxy]benzamide] | 86 | 22 | 6 | 19 | 2 | 42 |  |  |  |  | 
9 | CCS(=O)(=O)Nc1cccc(Cc2cc(C(N)=O)c(Nc3ccc(I)cc3Cl)c(F)c2F)c1F [Compound E-11, 2-(2-Chloro-4-iodoanilino)-5-[[3-(ethylsulfonylamino)-2-fluorophenyl]methyl]-3,4-difluorobenzamide] | 454 | 5 | 6 | 73 | 6 | 11 |  |  |  |  | 
10 | CCS(=O)(=O)Nc1cccc(Cc2cc(C(=O)NOC)c(Nc3ccc(I)cc3Cl)c(F)c2F)c1F [Compound E-9, 2-(2-chloro-4-iodoanilino)-5-[[3-(ethylsulfonylamino)-2-fluorophenyl]methyl]-3,4-difluoro-N-methoxybenzamide] | 95 | 11 | 7 | 57 | 6 | 13 |  |  |  |  | 
11 | CCS(=O)(=O)Nc1cccc(Cc2cc(C(N)=O)c(Nc3ccc(I)cc3F)c(F)c2F)c1 [Compound F-2, 5-[[3-(Ethylsulfonylamino)phenyl]methyl]-3,4-difluoro-2-(2-fluoro-4-iodoanilino)benzamide] | 383 | 5 | 8 | 66 | 8 | 15 |  |  |  |  | 
12 | CNS(=O)(=O)Nc1nccc(Cc2cc(C(=O)NOC)c(Nc3ccc(C4CC4)cc3F)c(F)c2F)c1F [Compound G-2, 2-(4-Cyclopropyl-2-fluoroanilino)-3,4-difluoro-5-[[3-fluoro-2-(methylsulfamoylamino)pyridin-4-yl]methyl]-N-methoxybenzamide] | 6 | 3 | 2 | 13 | 0.4 | 31 |  |  |  |  | 
13 | CONC(=O)c1cc(Cc2cccc(NS(=O)(=O)C3(C)CC3)c2F)c(=O)n(C)c1Nc1ccc(I)cc1F [Compound K-7, 2-(2-Fluoro-4-iodoanilino)-5-[[2-fluoro-3-[(1-methylcyclopropyl)sulfonylamino]phenyl]methyl]-N-methoxy-1-methyl-6-oxopyridine-3-carboxamide] | 31 | 14 | 9 | 27 | 7 | 357 |  |  |  |  | 
14 | O=C(NC1CC1)c1cc(Cc2ccnc(NS(=O)(=O)NC3CC3)c2F)c(F)c(F)c1Nc1ccc(I)cc1Cl [Compound B-12, 2-(2-Chloro-4-iodoanilino)-N-cyclopropyl-5-[[2-(cyclopropylsulfamoylamino)-3-fluoropyridin-4-yl]methyl]-3,4-difluorobenzamide] | 61 | 8 | 14 | 30 | 8 | 39 |  |  |  |  | 
15 | CC(C)CS(=O)(=O)Nc1cccc(Cc2cc(C(N)=O)c(Nc3ccc(I)cc3F)c(F)c2F)c1F [Compound E-17, 3,4-Difluoro-2-(2-fluoro-4-iodoanilino)-5-[[2-fluoro-3-(2-methylpropylsulfonylamino)phenyl]methyl]benzamide] | 199 | 6 | 31 | 110 | 7 | 24 |  |  |  |  | 
16 | CNS(=O)(=O)Nc1nccc(Cc2cc(C(=O)N[C@@H]3C[C@H]3C)c(Nc3ccc(I)cc3F)c(F)c2F)c1F (racemic) [Compound B-5, 3,4-Difluoro-2-(2-fluoro-4-iodoanilino)-5-[[3-fluoro-2-(methylsulfamoylamino)pyridin-4-yl]methyl]-N-[(1R, 2R)-(+/-)-2-methylcyclopropyl]benzamide (racemate)] |  |  | 7 | 29 | 5 | 22 | 6 |  |  |  | 93
17 | NS(=O)(=O)Nc1cccc(Cc2cc(C(=O)NC3CC3)c(Nc3ccc(I)cc3F)c(F)c2F)c1F [Compound D-7, N-Cyclopropyl-3,4-difluoro-2-(2-fluoro-4-iodoanilino)-5-[[2-fluoro-3-(sulfamoylamino)phenyl]methyl]benzamide] | 282 | 4 | 3 | 9 | 2 | 11 |  |  |  |  | 
18 | CNS(=O)(=O)Nc1cccc(Cc2cc(C(=O)NC3CC3)c(Nc3ccc(I)cc3F)c(F)c2F)c1 [Compound C-6, N-Cyclopropyl-3,4-difluoro-2-(2-fluoro-4-iodoanilino)-5-[[3-(methylsulfamoylamino)phenyl]methyl]benzamide] | 268 | 9 | 6 | 31 | 4 | 74 |  |  |  |  | 
19 | NC(=O)c1cc(Cc2ccnc(NS(N)(=O)=O)c2F)c(F)c(F)c1Nc1ccc(I)cc1F [Compound B-10, 3,4-Difluoro-2-(2-fluoro-4-iodoanilino)-5-[[3-fluoro-2-(sulfamoylamino)pyridin-4-yl]methyl]benzamide] | 22 | 11 | 72 | 33 | 8 | 3 |  |  |  |  | 
20 | NC(=O)c1cc(Cc2ccnc(NS(N)(=O)=O)c2)c(F)c(F)c1Nc1ccc(I)cc1F [Compound C-1, 3,4-Difluoro-2-(2-fluoro-4-iodoanilino)-5-[[2-(sulfamoylamino)pyridin-4-yl]methyl]benzamide] | 72 | 4 | 7 | 16 | 4 | 10 |  |  |  |  | 
